Experimental data from US20080221086A1, “Novel Inhibitors of Glutaminyl Cyclase” (PROBIODRUG AG, priority 2006, published 2008).
Where two headings read alike, the source gives them in different places.

Molecular target: hQC (Homo sapiens, UniProt Q16769)
Test: Fluorometric assay of glutaminyl cyclase (QC) inhibition, H-Gln-βNA or H-Gln-AMC substrate
Assay type: biochemical
Procedure, shortened: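 Fluorometric coupled assays at 30° C in Tris/HCl pH 8.0 with EDTA and pyroglutamyl aminopeptidase used either 0.2 mM H-Gln-βNA (320/410 nm) or H-Gln-AMC (380/460 nm), started by QC. Screening used 4 mM inhibitor at substrate 1 KM. Ki came from fitting progress curves to competitive inhibition.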

Chain of hQC (Q16769 29-361): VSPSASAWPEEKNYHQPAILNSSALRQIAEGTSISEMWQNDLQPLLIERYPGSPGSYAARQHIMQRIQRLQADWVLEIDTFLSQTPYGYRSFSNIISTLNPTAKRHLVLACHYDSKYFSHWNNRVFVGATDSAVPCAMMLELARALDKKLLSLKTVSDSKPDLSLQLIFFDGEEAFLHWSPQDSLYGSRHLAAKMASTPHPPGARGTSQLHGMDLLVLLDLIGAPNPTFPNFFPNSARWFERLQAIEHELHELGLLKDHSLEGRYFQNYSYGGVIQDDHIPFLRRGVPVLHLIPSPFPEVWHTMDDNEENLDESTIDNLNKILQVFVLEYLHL

Compound	IC50 (compound from preparative synthesis, purified by chromatography, fluorescent assay, read-out: IC50 hQC)	IC50 (read-out: IC50)
O=C1CCCN1CCC/N=C1/NC(=O)N(c2ccc3[nH]cnc3c2)C1c1ccc2c(c1)OCO2 (stereo not drawn) [Compound 168, 5-Benzo[1,3]dioxol-5-yl-1-(1H-benzoimidazol-5-yl)-4-(3-(2-oxo-pyrrolidin-1-yl)-propylimino)-imidazolidin-2-one]	27.4 nM	4 nM
O=C1N/C(=N\C(Cc2ccccc2)c2ccccc2)C(C2=CCCCC2)N1c1ccc2[nH]cnc2c1 (stereo not drawn) [Compound 169, 1-(1H-Benzoimidazol-5-yl)-5-cyclohex-1-enyl-4-1,2-diphenyl-ethylimino-imidazolidin-2-one]		3100 nM
Cc1ccc(C2/C(=N\Cc3ccc4[nH]ccc4c3)NC(=O)N2c2ccc3[nH]cnc3c2)cc1 (stereo not drawn) [Compound 170, 1-(1H-Benzoimidazol-5-yl)-4-1H-indol-5-ylmethylimino-5-p-tolyl-imidazolidin-2-one]		4 nM
O=C1N/C(=N\C2CCCC2)C(c2ccc3ccccc3c2)N1c1ccc2[nH]cnc2c1 (stereo not drawn) [Compound 171, 1-(1H-Benzoimidazol-5-yl)-4-cyclopentylimino-5-naphthalen-2-yl-imidazolidin-2-one]		4 nM
O=C1N/C(=N/CCCc2ccccc2)C(c2cc3ccccc3s2)N1c1ccc2[nH]cnc2c1 (stereo not drawn) [Compound 172, 5-Benzobthiophen-2-yl-1-(1H-Benzoimidazol-5-yl)-4-3-phenyl-propylimino-imidazolidin-2-one]		1300 nM
O=C1N/C(=N/Cn2nnc3ccccc32)C(c2ccc3[nH]ccc3c2)N1c1ccc2[nH]cnc2c1 (stereo not drawn) [Compound 173, 1-(1H-Benzoimidazol-5-yl)-4-benzotriazol-1-ylmethylimino-5-(1H-indol-5-yl)-imidazolidin-2-one]		4 nM
CC(C)/N=C1\NC(=O)N(c2ccc3[nH]cnc3c2)C1c1cccc(C#N)c1 (stereo not drawn) [Compound 174, 3-{3-(1H-Benzoimidazol-5-yl)-5-isopropylimino-2-oxo-imidazolidin-4-yl}-benzonitrile]		400 nM
O=C1CCCN1CC/N=C1\NC(=S)N(c2ccc3[nH]cnc3c2)C1c1cccc(Br)c1 (stereo not drawn) [Compound 175, 1-(2-(1-(1H-benzo[d]imidazol-5-yl)-5-(3-bromophenyl)-2-thioxoimidazolidin-4-ylideneamino)ethyl)pyrrolidin-2-one]		4900 nM
S=C1N/C(=N/Cn2nnc3ccccc32)C(c2ccc3c(c2)OCO3)N1c1ccc2[nH]cnc2c1 (stereo not drawn) [Compound 176, 5-Benzo1,3dioxol-5-yl-1-(1H-benzoimidazol-5-yl)-4-benzotriazol-1-ylmethylimino-imidazolidine-2-thione]		1300 nM
O=C1N/C(=N\Cc2ccccc2)C(c2cccc(Br)c2)N1c1ccc2nc[nH]c2c1 (stereo not drawn) [Compound 177, 1-(1H-benzo[d]imidazol-6-yl)-4-(benzylimino)-5-(3-bromophenyl)imidazolidin-2-one]		4 nM
CC(C)C1/C(=N\C(C)(C)CC(C)(C)C)NC(=S)N1c1ccc2[nH]cnc2c1 (stereo not drawn) [Compound 178, 1-(1H-Benzoimidazol-5-yl)-5-isopropyl-4-1,1,3,3-tetramethyl-butylimino-imidazolidine-2-thione]		6700 nM
O=C(CN=C1NC(=O)N(c2ccc3nc[nH]c3c2)C1c1cc(Br)cc(Br)c1)N1CCSCC1 (stereo not drawn) [Compound 179, 1-(3H-Benzoimidazol-5-yl)-5-(3,5-dibromo-phenyl)-4-2-oxo-2-thiomorpholin-4-yl-ethylimino-imidazolidin-2-one]		4000 nM
CN(C)c1ccc(C2/C(=N\Cc3cccnc3)NC(=O)N2c2ccc3[nH]cnc3c2)cc1 (stereo not drawn) [Compound 180, 1-(1H-Benzoimidazol-5-yl)-5-(4-dimethylamino-phenyl)-4-pyridin-3-ylmethylimino-imidazolidin-2-one]		400 nM
CSc1ccc(C2C(=NCn3nnc4ccccc43)NC(=O)N2c2ccc3[nH]cnc3c2)cc1 (stereo not drawn) [Compound 181, 1-(1H-Benzoimidazol-5-yl)-4-benzotriazol-1-ylmethylimino-5-(4-methylsulfanyl-phenyl)-imidazolidin-2-one]		1300 nM
O=C(C/N=C1\NC(=S)N(c2ccc3nc[nH]c3c2)C1c1cc(Br)cs1)N1CCc2ccccc2C1 (stereo not drawn) [Compound 182, 2-(1-(1H-benzo[d]imidazol-6-yl)-5-(4-bromothiophen-2-yl)-2-thioxoimidazolidin-4-ylideneamino)-1-(3,4-dihydroisoquinolin-2(1H)-yl)ethanone]		1300 nM
O=C1N/C(=N\C2CCCCC2)C(c2cc(Br)cs2)N1c1ccc2[nH]cnc2c1 (stereo not drawn) [Compound 184]		1300 nM
O=C(CN=C1NC(=S)N(c2ccc3nc[nH]c3c2)C1c1c(F)ccc(Cl)c1F)N1CCCCC1 (stereo not drawn) [Compound 185, 2-(1-(1H-benzo[d]imidazol-6-yl)-5-(3-chloro-2,6-difluorophenyl)-2-thioxoimidazolidin-4-ylideneamino)-1-(piperidin-1-yl)ethanone]		400 nM
O=C1N/C(=N\C2CCCC2)C(c2cc(Br)cc(Br)c2)N1c1ccc2[nH]cnc2c1 (stereo not drawn) [Compound 186, 1-(1H-Benzoimidazol-5-yl)-4-cyclopentylimino-5-(3,5-dibromo-phenyl)-imidazolidin-2-one]		4 nM

Compound	IC50 (compound from preparative synthesis, purified by chromatography, fluorescent assay, read-out: IC50 hQC)	IC50 (read-out: IC50)
O=C(CN=C1NC(=S)N(c2ccc3nc[nH]c3c2)C1c1cc(Br)cs1)N1CCCCC1 (stereo not drawn) [Compound 187, 2-(1-(1H-benzo[d]imidazol-6-yl)-5-(4-bromothiophen-2-yl)-2-thioxoimidazolidin-4-ylideneamino)-1-(piperidin-1-yl)ethanone]		400 nM
Fc1ccc(Cl)c(F)c1C1/C(=N/c2c(Cl)cccc2Cl)NC(=S)N1c1ccc2nc[nH]c2c1 (stereo not drawn) [Compound 188, 1-(3H-Benzoimidazol-5-yl)-5-(3-chloro-2,6-difluoro-phenyl)-4-2,6-dichloro-phenylimino-imidazolidine-2-thione]		6700 nM
Cc1cccc(C2/C(=N\Cn3nnc4ccccc43)NC(=O)N2c2ccc3nc[nH]c3c2)n1 (stereo not drawn) [Compound 189, 1-(3H-Benzoimidazol-5-yl)-4-benzotriazol-1-ylmethylimino-5-(6-methyl-pyridin-2-yl)-imidazolidin-2-one]		4000 nM
O=C1NC(=NC2CCCc3ccccc32)C(c2ccccc2Cl)N1c1ccc2[nH]cnc2c1 (stereo not drawn) [Compound 190, 1-(1H-Benzoimidazol-5-yl)-5-(2-chloro-phenyl)-4-1,2,3,4-tetrahydro-naphthalen-1-ylimino-imidazolidin-2-one]		400 nM
S=C1NC(=NC2CCc3ccccc32)C(c2ccnc3ccccc23)N1c1ccc2[nH]cnc2c1 (stereo not drawn) [Compound 191, 1-(1H-Benzoimidazol-5-yl)-4-indan-1-ylimino-5-quinolin-4-yl-imidazolidine-2-thione]		9400 nM
O=c1c(C2/C(=N/c3cc(Cl)ccc3Cl)NC(=S)N2c2ccc3[nH]cnc3c2)coc2ccccc12 (stereo not drawn) [Compound 192, 3-{3-(1H-Benzoimidazol-5-yl)-5-2,5-dichloro-imidazolidin-4-yl}-chromen-4-one]		3100 nM
CC1=CC(C)C(C2/C(=N/C3CCc4ccccc43)NC(=O)N2c2ccc3[nH]cnc3c2)CC1 (stereo not drawn) [Compound 193, 1-(1H-Benzoimidazol-5-yl)-5-(2,4-dimethyl-cyclohex-3-enyl)-4-indan-1-ylimino-imidazolidin-2-one]		4900 nM
S=C1N/C(=N\c2cc(Cl)ccc2Cl)C(c2ccc(Cl)cc2)N1c1ccc2[nH]cnc2c1 (stereo not drawn) [Compound 194, 1-(1H-Benzoimidazol-5-yl)-5-(4-chloro-phenyl)-4-2,5-dichloro-phenylimino-imidazolidine-2-thione]		6700 nM
C/N=C1/NC(=O)N(c2ccc3[nH]cnc3c2)C1c1ccc2c(c1)OCO2 (stereo not drawn) [Compound 195, 5-Benzo1,3dioxol-5-yl-1-(1H-benzoimidazol-5-yl)-4-methylimino-imidazolidin-2-one]		1300 nM
O=C1N/C(=N\C2CCCCC2)C(c2cc3c(cc2Br)OCO3)N1c1ccc2nc[nH]c2c1 (stereo not drawn) [Compound 196, 1-(3H-Benzoimidazol-5-yl)-5-(6-bromo-benzo1,3-dioxol-5-yl)-4-cyclohexylimino-imidazolidin-2-one]		4 nM
CC(CC1/C(=N/C2CCCc3ccccc32)NC(=O)N1c1ccc2[nH]cnc2c1)CC(C)(C)C (stereo not drawn) [Compound 197, 1-(1H-Benzoimidazol-5-yl)-4-1,2,3,4-tetrahydro-naphthalen-1-ylimino-5-(2,4,4-trimethyl-pentyl)-imidazolidin-2-one]		9400 nM
O=C1N/C(=N\C2CCc3ccccc32)CN1c1ccc2[nH]cnc2c1 (stereo not drawn) [Compound 198, 1-(1H-Benzoimidazol-5-yl)-4-indan-1-ylimino-imidazolidin-2-one]		4000 nM
CC1=CC(C)C(C2/C(=N/C(C)(C)CC(C)(C)C)NC(=S)N2c2ccc3nc[nH]c3c2)CC1 (stereo not drawn) [Compound 200, 1-(3H-Benzoimidazol-5-yl)-5-(2,4-dimethyl-cyclohex-3-enyl)-4-1,1,3,3-tetramethyl-butylimino-imidazolidine-2-thione]		5800 nM
O=C(C/N=C1/NC(=O)N(c2ccc3nc[nH]c3c2)C1c1cc2c(cc1Br)OCO2)N1CCSCC1 (stereo not drawn) [Compound 201, 1-(3H-Benzoimidazol-5-yl)-5-(6-bromo-benzo1,3dioxol-5-yl)-4-2-oxo-2-thiomorpholin-4-yl-ethylimino-imidazolidin-2-one]		4000 nM
Fc1ccc(/N=C2\NC(=S)N(c3ccc4[nH]cnc4c3)C2c2ccnc3ccccc23)cc1 (stereo not drawn) [Compound 202, 1-(1H-Benzoimidazol-5-yl)-4-4-fluoro-phenylimino-5-quinolin-4-yl-imidazolidine-2-thione]		7600 nM
Cc1ccc2occ(C3/C(=N/C4CCCCC4O)NC(=S)N3c3ccc4[nH]cnc4c3)c(=O)c2c1 (stereo not drawn) [Compound 203, 3-{3-(1H-Benzoimidazol-5-yl)-5-2-hydroxy-cyclohexylimino-2-thioxo-imidazolidin-4-yl}-6-methyl-chromen-4-one]		5800 nM
O=C1N/C(=N/Cn2nnc3ccccc32)C(c2cc3c(cc2Br)OCO3)N1c1ccc2nc[nH]c2c1 (stereo not drawn) [Compound 204, 1-(3H-Benzoimidazol-5-yl)-4-benzotriazol-1-ylmethylimino-5-(6-bromo-benzo1,3dioxol-5-yl)-imidazolidin-2-one]		400 nM
